Each structure is given as a SMILES string. ± gives the expanded uncertainty stated by the source.

The conditions of the series: Liquid; for mass density: 298.15 K; for mass density / molar volume: 101.33 kPa; for molar volume / vapor or sublimation pressure: 313.15 K; for molar volume: Vibrating tube method; for vapor or sublimation pressure: Ebulliometric method (Recirculating still).

In the case of `ClCCCl` [1,2-dichloroethane], the mass density (usually the mass of a sample divided by its volume) is reported as 1246.59 ± 0.41 kg/m3, the molar volume was 8.1e-05 ± 1e-06 m3/mol and the vapor or sublimation pressure (commonly the equilibrium pressure above the liquid or solid) is given as 21.05 ± 0.2 kPa.
The corresponding values for `ClCCBr` [1-bromo-2-chloroethane] are 1727.88 ± 1.9 kg/m3, 8.4e-05 ± 1e-06 m3/mol and 8.91 ± 0.1 kPa.
For the molecule `ClCBr` [bromochloromethane], the mass density stood at 1924.88 ± 1.3 kg/m3, the molar volume is on record as 6.9e-05 ± 1e-06 m3/mol and the “vapor or sublimation pressure” value is on record as 37.28 ± 0.43 kPa.
The matching figures for `BrCBr` [dibromomethane]: 2478.37 ± 2.3 kg/m3, 7.1e-05 ± 1e-06 m3/mol and 13.01 ± 0.15 kPa.
The corresponding values for `CCOC(C)=O` [ethyl acetate] are 894.97 ± 0.27 kg/m3, 0.000101 ± 1e-06 m3/mol and 25.3 ± 0.2 kPa.

For the origin of these results see the NIST ThermoML archive (doi:10.1021/je034259j).
